Read-outs that look alike come from different tables or passages of the source.

For assay [1], the target named is T1, dopamine transporter (Rattus norvegicus, UniProt P23977).
T1 construct: Corpus striatum from male Wistar rats (150-200 g) is homogenized; from tissue; host or cells: corpus striatum of male Wistar rats
Nature of the assay: In vitro inhibition of ^3 H-WIN 35428 binding (corpus striatum). More on the design: species or system rat (male Wistar). From the text:
The compounds of the present invention have been tested for their ability to bind to the dopamine transporter in the following tests for in vitro and in vivo inhibition of ^3 H-WIN 35428.
In vitro inhibition of ^3 H-WIN 35428 binding
Dopamine transporters/uptake sites on nerve terminals presumably function to terminate neuronal signaling by removing dopamine from the synaptic cleft. The activity or presence of the dopamine transporter integral protein can be measured in vitro with synaptosomal uptake of ^3 H-dopamine or membrane binding assays with ^3 H-ligands known to bind to the transporter.
Numerous ligands of several structural types have been reported to bind at the dopamine uptake site, but it remains questionable whether their binding sites are identical to that of cocaine.
Tissue preparation: Preparations are performed at 0°-4° C. unless otherwise indicated. Corpus striatum from male Wistar rats (150-200 g) is homogenized for 5-10 sec in 10 ml NaH2 PO4 (50 mM, pH 7.4) using an Ultra-Turrax homogenizer. The suspension is centrifuged at 27,000×g for 15 min. The supernatant is discarded and the pellet is resuspended in 50 mM NaH2 PO4, pH 7.4 (1000 ml per g of original tissue) and used for binding assays.
Assay: Aliquots of 0.5 ml tissue are added to […] of ^3 H-WIN 35428 (1 nM, final concentration), mixed and incubated for 60 min at 2° C. Non-specific binding is determined using cocaine ([…], final concentration). After incubation the samples are added 5 ml of ice-cold buffer and poured directly onto Whatman GF/C glass fibre filters under suction and immediately washed with 5 ml ice-cold buffer. The amount of radioactivity on the filters is determined by conventional liquid scintillation counting. Specific binding is total binding minus non-specific binding.
25-75% inhibition of specific binding must be obtained, before calculation of an IC50. The test value is given as IC50 (the concentration (μM) of the test substance which inhibits the specific binding of ^3 H-WIN 35428 by 50%).

Assay [2] concerns the target T2, dopamine transporter (Mus musculus, UniProt Q61327). The experiment in a line: In vivo inhibition of ^3 H-WIN 35428 binding (striatum). More on the design: from tissue; host or cells: striatum of living female NMRI mice; species or system mice (female NMRI). As to conditions: ip, mice, inhibition of specific ^3 H-WIN 35428 binding in striatum. Here is the method: All test substances used are solutions or suspensions prepared in 10% TWEEN 80. Groups of three female NMRI mice (25 g) are injected i.p. with the test substance. […] Tissues are weighed and dissolved for 36 h with 1 ml 2% sodium-laurylsulfat. The solubilized tissue is then added 2 ml of scintillation cocktail, and the amount of radioactivity per mg of tissue is counted by conventional liquid scintillation counting. Groups of untreated mice serves as controls.
The ED50 value is determined from dose response curves.
ED50 =(administered dose, mg/kg)×1/(C0 /Cx -1), where C0 is specific binding in controls and Cx is the specific binding in mice treated with test substance.

The subject of assay [3] is immobility time of mice suspended by the tail. The experiment in a line: Tail Suspension. The following applies: Mus musculus, 0.5 h, oral, 30 min before test, dose reducing the immobility to 100 sec. The assay is classed as in vivo, mice (female NMRI). On the procedure: A decrease in the immobility time by mice suspended in their tail is seen after systemic administration of central stimulants and by antidepressants (Steru, L., Chermat, R., Thierry, B. & Simon, P. (1985) The tail suspension test: A new method for screening antidepressants in mice. Psychopharmacology 85:367-370.).
Female NMRI mice (20-25 g) habituated to the room (12 hours light/dark) for at least 16 hours and housed 25 per cage are used. The mice are suspended by the tail with adhesive tape to a rod 30 cm above the lab. bench 30 min after an oral administation of vehicle or drug. For the next 6 min the accumulated duration of immobility defined as no movements by the body or extremities (however head movements are not defined as movements) are noted, Six mice per dose are used.
Saline or vehicle treated mice have immobility time scores between 160-180 sec in average. An ED50 -value is calculated by graphical interpolation from at least 3 doses as the dose reducing the immobility to 100 sec.

Assay [4] addresses T2, dopamine transporter. As to conditions: cited from earlier work.

T2 sequence (Q61327 whole entry): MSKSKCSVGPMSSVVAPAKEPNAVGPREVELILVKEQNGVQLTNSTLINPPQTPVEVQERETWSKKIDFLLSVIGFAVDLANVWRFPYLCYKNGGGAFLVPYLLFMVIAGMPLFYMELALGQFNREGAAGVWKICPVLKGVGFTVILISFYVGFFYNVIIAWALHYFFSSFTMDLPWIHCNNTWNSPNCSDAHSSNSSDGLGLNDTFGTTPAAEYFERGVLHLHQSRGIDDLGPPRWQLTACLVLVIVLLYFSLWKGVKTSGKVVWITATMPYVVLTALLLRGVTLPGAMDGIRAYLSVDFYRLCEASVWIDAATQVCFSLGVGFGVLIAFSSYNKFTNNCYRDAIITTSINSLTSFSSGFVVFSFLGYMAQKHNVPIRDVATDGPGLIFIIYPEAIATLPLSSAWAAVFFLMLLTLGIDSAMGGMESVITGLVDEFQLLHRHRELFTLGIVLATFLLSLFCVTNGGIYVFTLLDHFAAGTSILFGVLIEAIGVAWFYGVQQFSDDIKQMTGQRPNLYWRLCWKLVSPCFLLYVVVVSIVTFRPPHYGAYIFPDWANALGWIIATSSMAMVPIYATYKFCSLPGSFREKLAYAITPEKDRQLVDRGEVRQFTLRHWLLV
T1 sequence (P23977 whole entry): as the sequence (Q61327 whole entry) above, with P21S, V57A, S194A, R600H, V619L counted along it

As usually defined, the IC50 is the concentration at which inhibition is half-maximal. A word on the ED50: it is the dose at which the effect has come halfway, by size or by number of responders. `CN1[C@H]2CC[C@@H]1[C@H](C=NO)[C@@H](c1ccc(Cl)cc1)C2` [(1R,2R,3S)-3-(4-chlorophenyl)tropane-2-aldoxime] returned a half-inhibitory concentration (IC50) at dopamine transporter [1] of 13 nM. Also, the 50% effective dose (ED50) at dopamine transporter [2] stood at 1.05 mg/kg; in assay [3], 0.19 mg/kg.
On to `CON=C[C@H]1[C@@H](c2ccc(Cl)c(Cl)c2)C[C@@H]2CC[C@H]1N2C` [(1R,2S,3S)-3-(3,4-dichlorophenyl)tropane-2-O-methyl-aldoxime], for which the half-maximal inhibitory concentration (IC50) at dopamine transporter [1] (rat corpus striatum, ^3 H-WIN 35428 1 nM, 60 min at 2° C., read-out: in vitro IC50) was found to be 1.8 nM. The results for the median effective dose (ED50) (on dopamine transporter [2]; in assay [3]) were 0.37 mg/kg and 0.4 mg/kg, respectively.
For `CN1[C@H]2CC[C@@H]1[C@@H](C=NO)[C@@H](c1ccc(Cl)c(Cl)c1)C2` [(1R,2S,3S)-3-(3,4-dichlorophenyl)tropane-2-aldoxime], the IC50 on dopamine transporter [1] stood at 2 nM. In addition, the 50% effective dose (ED50) on dopamine transporter [2] was 0.56 mg/kg; in assay [3], 0.27 mg/kg.
As for `Fc1ccc(C(OCCN2CCN(CCCc3ccccc3)CC2)c2ccc(F)cc2)cc1` [GBR 12909], the “prevention of specific binding of ^3 H-WIN 35428 in vivo” value on dopamine transporter [4] is recorded as “partly or completely prevented”.

The values above are taken from patent US5736556A, “Tropane-2-aldoxime derivatives as nevro transmitter reuptake inhibitors” (NeuroSearch A/S, priority 1994, dated 1998).
